Reference: US6737383B1, “Herbicidal oxadiazolidines” (priority 1999, dated 2004)

Columns and labels:
blackgrass = assay: Test B pre/postemergence blackgrass; type: in vivo, Alopecurus myosuroides
In short: (§1)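 Test chemicals in a non-phytotoxic solvent mixture with surfactant were sprayed preemergence onto planted seeds and postemergence onto plants 2 to 18 cm tall (1- to 4-leaf stage). After twelve to sixteen days in a greenhouse, injury was visually rated against untreated controls from 0 (no effect) to 10 (complete control).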

surinam grass = assay: Test B pre/postemergence surinam grass; type: in vivo, Brachiaria decumbens
In short: as §1

cocklebur = assay: Test B pre/postemergence cocklebur; type: in vivo, Xanthium strumarium
In short: as §1

corn = assay: Test B pre/postemergence corn; type: in vivo, Zea mays
In short: as §1

crabgrass = assay: Test B pre/postemergence crabgrass; type: in vivo, Digitaria sanguinalis
In short: as §1

giant foxtail = assay: Test B pre/postemergence giant foxtail; type: in vivo, Setaria faberii
In short: as §1

morningglory = assay: Test B pre/postemergence morningglory; type: in vivo, Ipomoea hederacea
In short: as §1

pigweed = assay: Test B pre/postemergence pigweed; type: in vivo, Amaranthus retroflexus
In short: as §1

rape = assay: Test B pre/postemergence rape; type: in vivo, Brassica napus
In short: as §1

soybean = assay: Test B pre/postemergence soybean; type: in vivo, Glycine max
In short: as §1

sugar beet = assay: Test B pre/postemergence sugar beet; type: in vivo, Beta vulgaris
In short: as §1

velvetleaf = assay: Test B pre/postemergence velvetleaf; type: in vivo, Abutilon theophrasti
In short: as §1

wheat = assay: Test B pre/postemergence wheat; type: in vivo, Triticum aestivum
In short: as §1

wild oat = assay: Test B pre/postemergence wild oat; type: in vivo, Avena fatua
In short: as §1

purple nutsedge = assay: Test B pre/postemergence purple nutsedge; type: in vivo, Cyperus rotundus
In short: as §1

rice = assay: Test B flood test rice; type: in vivo, Oryza sativa
In short: (§2)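 Read-out is a visual response score from 0 (no effect) to 10 (complete control), assigned by comparison with untreated controls. Treatment was applied at the 2-leaf stage, and plants stayed in the greenhouse for twelve to sixteen days before scoring.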

smallflower flatsedge = assay: Test B flood test smallflower flatsedge; type: in vivo, Cyperus difformis
In short: as §2

duck salad = assay: Test B flood test duck salad; type: in vivo, Heteranthera limosa
In short: as §2

bamyardgrass = assay: Test B flood test barnyardgrass; type: in vivo, Echinochloa crus-galli
In short: as §2

[1] = Postemergence, Rate 125 g/ha, scale 0 to 10, 0 is no effect, 10 is complete control
[2] = Postemergence, Rate 250 g/ha, scale 0 to 10, 0 is no effect, 10 is complete control
[3] = Postemergence, Rate 500 g/ha, scale of 0 to 10 where 0 is no effect and 10 is complete control
[4] = Preemergence, Rate 62 g/ha, scale 0 to 10 (0 no effect, 10 complete control)
[5] = Preemergence, Rate 125 g/ha, scale of 0 to 10 where 0 is no effect and 10 is complete control
[6] = Preemergence, Rate 250 g/ha, scale of 0 to 10 where 0 is no effect and 10 is complete control
[7] = Preemergence, Rate 500 g/ha, scale 0 to 10, 0 is no effect, 10 is complete control
[8] = Rate 62 g/ha, Postemergence, scale of 0 to 10 where 0 is no effect and 10 is complete control
[9] = Preemergence, Rate 250 g/ha, scale 0 to 10, 0 is no effect, 10 is complete control
[10] = Rate 62 g/ha, flood test species, Pre-emergence, visual evaluation after twelve to sixteen days
[11] = Rate 125 g/ha, under heading Pre-emergence, flood test species, visual evaluation after twelve to sixteen days
[12] = Rate 250 g/ha, Pre-emergence, flood-test species, scale 0 to 10, 0 is no effect, 10 is complete control
[13] = Rate 500 g/ha, Pre-emergence, flood test species, scale 0 to 10 (0 no effect, 10 complete control)

## Cc1nc(Cl)sc1C(C)n1c(=O)on(C(=O)N(c2ccc(F)cc2F)C(C)C)c1=O (stereo not shown) [Compound 405]
blackgrass; [1]
  Plant response rating, Blackgrass: 0
blackgrass; [2]
  Plant response rating, Blackgrass: 0
blackgrass; [3]
  Blackgrass plant response rating: 5
blackgrass; [4]
  Plant response rating, Blackgrass: 0
blackgrass; [5]
  Plant response rating, Blackgrass: 0
blackgrass; [6]
  Blackgrass plant response rating: 0
blackgrass; [7]
  Blackgrass plant response rating: 0
blackgrass; [8]
  Blackgrass plant response rating: 0
Surinam grass; [1]
  Plant response rating, B. signalgrass: 0
Surinam grass; [2]
  Plant response rating, B. signalgrass: 0
Surinam grass; [3]
  B. signalgrass plant response rating: 0
Surinam grass; [4]
  Plant response rating, B. signalgrass: 0
Surinam grass; [5]
  Plant response rating, B. signalgrass: 0
Surinam grass; [6]
  B. signalgrass plant response rating: 0
Surinam grass; Preemergence, Rate 500 g/ha, scale of 0 to 10 where 0 is no effect and 10 is complete control
  B. signalgrass plant response rating: 0
Surinam grass; [8]
  B. signalgrass plant response rating: 0
cocklebur; [1]
  Plant response rating, Cocklebur: 0
cocklebur; [2]
  Plant response rating, Cocklebur: 0
cocklebur; [3]
  Cocklebur plant response rating: 0
cocklebur; [4]
  Plant response rating, Cocklebur: 0
cocklebur; [5]
  Plant response rating, Cocklebur: 0
cocklebur; [9]
  Cocklebur plant response rating: 0
cocklebur; [7]
  Cocklebur plant response rating: 0
cocklebur; [8]
  Cocklebur plant response rating: 0
corn; [1]
  Plant response rating, Corn: 0
corn; [2]
  Plant response rating, Corn: 0
corn; [3]
  Corn plant response rating: 0
corn; [4]
  Plant response rating, Corn: 0
corn; [5]
  Plant response rating, Corn: 0
corn; [9]
  Corn plant response rating: 0
corn; [8]
  Corn plant response rating: 0
crabgrass; [1]
  Plant response rating, Crabgrass: 0
crabgrass; [2]
  Plant response rating, Crabgrass: 0
crabgrass; [3]
  Crabgrass plant response rating: 0
crabgrass; [4]
  Plant response rating, Crabgrass: 0
crabgrass; [5]
  Plant response rating, Crabgrass: 1
crabgrass; [9]
  Crabgrass plant response rating: 8
crabgrass; [7]
  Crabgrass plant response rating: 10
crabgrass; [8]
  Crabgrass plant response rating: 0
Giant foxtail; [1]
  Plant response rating, Giant foxtail: 0
Giant foxtail; [2]
  Plant response rating, Giant foxtail: 0
Giant foxtail; [3]
  Giant foxtail plant response rating: 6
Giant foxtail; [4]
  Plant response rating, Giant foxtail: 0
Giant foxtail; [5]
  Plant response rating, Giant foxtail: 8
Giant foxtail; [9]
  Giant foxtail plant response rating: 9
Giant foxtail; [7]
  Giant foxtail plant response rating: 10
Giant foxtail; [8]
  Giant foxtail plant response rating: 0
morningglory; [2]
  Plant response rating, Morningglory: 5
morningglory; [3]
  Morningglory plant response rating: 5
morningglory; [4]
  Plant response rating, Morningglory: 0
morningglory; [5]
  Plant response rating, Morningglory: 0
morningglory; [9]
  Morningglory plant response rating: 0
morningglory; [7]
  Morningglory plant response rating: 0
pigweed; [2]
  Plant response rating, Redroot pigweed: 0
pigweed; [3]
  Redroot pigweed plant response rating: 0
pigweed; [4]
  Plant response rating, Redroot pigweed: 0
pigweed; [5]
  Plant response rating, Redroot pigweed: 0
pigweed; [9]
  Redroot pigweed plant response rating: 0
pigweed; [7]
  Redroot pigweed plant response rating: 0
rape; [2]
  Plant response rating, Rape: 0
rape; [3]
  Rape plant response rating: 2
rape; [4]
  Plant response rating, Rape: 0
rape; [5]
  Plant response rating, Rape: 0
rape; [9]
  Rape plant response rating: 0
rape; [7]
  Rape plant response rating: 0
soybean; [2]
  Plant response rating, Soybean: 2
soybean; [3]
  Soybean plant response rating: 3
soybean; [4]
  Plant response rating, Soybean: 0
soybean; [5]
  Plant response rating, Soybean: 0
soybean; [9]
  Soybean plant response rating: 0
soybean; [7]
  Soybean plant response rating: 3
Sugar beet; [2]
  Plant response rating, Sugarbeets: 0
Sugar beet; [3]
  Sugarbeets plant response rating: 0
Sugar beet; [4]
  Plant response rating, Sugarbeets: 0
Sugar beet; [5]
  Plant response rating, Sugarbeets: 0
Sugar beet; [9]
  Sugarbeets plant response rating: 0
Sugar beet; [7]
  Sugarbeets plant response rating: 0
velvetleaf; [2]
  Plant response rating, Velvetleaf: 0
velvetleaf; [3]
  Velvetleaf plant response rating: 0
velvetleaf; [4]
  Plant response rating, Velvetleaf: 0
velvetleaf; [5]
  Plant response rating, Velvetleaf: 0
velvetleaf; [9]
  Velvetleaf plant response rating: 0
velvetleaf; [7]
  Velvetleaf plant response rating: 0
wheat; [3]
  Wheat plant response rating: 0
wheat; [4]
  Plant response rating, Wheat: 0
wheat; [5]
  Plant response rating, Wheat: 0
wheat; [9]
  Wheat plant response rating: 0
wheat; [7]
  Wheat plant response rating: 0
Wild oat; [3]
  Wild oats plant response rating: 0
Wild oat; [4]
  Plant response rating, Wild oats: 0
Wild oat; [5]
  Plant response rating, Wild oats: 0
Wild oat; [9]
  Wild oats plant response rating: 0
Wild oat; [7]
  Wild oats plant response rating: 0
Purple nutsedge; [2]
  Plant response rating, Nutsedge: 0
Purple nutsedge; [3]
  Nutsedge plant response rating: 0
Purple nutsedge; [4]
  Plant response rating, Nutsedge: 0
Purple nutsedge; [5]
  Plant response rating, Nutsedge: 0
Purple nutsedge; [9]
  Nutsedge plant response rating: 0
Purple nutsedge; [7]
  Nutsedge plant response rating: 0
rice; [10]
  Plant response rating, Rice (0 to 10 scale, 0 is no effect, 10 is complete control): 0
rice; [11]
  Rice plant response rating (0 to 10 scale, 0 is no effect, 10 is complete control): 0
rice; [12]
  Rice plant response rating: 0
rice; [13]
  Rice plant response rating: 0
Smallflower flatsedge; [10]
  Plant response rating, S. Flatsedge (0 to 10 scale, 0 is no effect, 10 is complete control): 0
Smallflower flatsedge; [11]
  S. Flatsedge plant response rating (0 to 10 scale, 0 is no effect, 10 is complete control): 0
Smallflower flatsedge; [12]
  S. Flatsedge plant response rating: 0
Smallflower flatsedge; [13]
  S. Flatsedge plant response rating: 0
Duck salad; [10]
  Plant response rating, Ducksalad (0 to 10 scale, 0 is no effect, 10 is complete control): 0
Duck salad; [11]
  Ducksalad plant response rating (0 to 10 scale, 0 is no effect, 10 is complete control): 0
Duck salad; [12]
  Ducksalad plant response rating: 0
Duck salad; [13]
  Ducksalad plant response rating: 0
bamyardgrass; [10]
  Plant response rating, Barnyardgrass (0 to 10 scale, 0 is no effect, 10 is complete control): 0
bamyardgrass; [11]
  Barnyardgrass plant response rating (0 to 10 scale, 0 is no effect, 10 is complete control): 0
bamyardgrass; [12]
  Barnyardgrass plant response rating: 0
bamyardgrass; [13]
  Barnyardgrass plant response rating: 0
